# Results from patent US8410302B2, “Methoxyimino compounds and fungicide composition comprising same” (Kyung Nong Corporation, priority 2007, dated 2013).
# Read-outs that look alike come from different tables or passages of the source.
# Columns and labels:
# Rhizoctonia solani AG-1 = assay: Fungicidal activity against rice sheath blight (RSB) disease, control value; conditions: for pest or weed control at 2 ppm / pest or weed control at 10 ppm / pest or weed control at 50 ppm / pest or weed control at 100 ppm: Rhizoctonia solani, AG1, in Oryza sativa, read-out: RSB control value (C.V.); for RSB control value (C.V.): rice sheath blight
# [1] = system: Pyricularia oryzae Carvara KA301; assay: whole plant or invertebrate; format: in vivo; conditions: for pest or weed control at 2 ppm / pest or weed control at 10 ppm / pest or weed control at 50 ppm / pest or weed control at 100 ppm: Pyricularia oryzae, read-out: RCB control value (C.V.); for RCB control value (C.V.): rice blast
# Botrytis cinerae = assay: Fungicidal activity against cucumber gray mold rot (CGM) disease, control value; format: in vivo; conditions: for pest or weed control at 50 ppm / pest or weed control at 100 ppm: Botrytis, read-out: CGM control value (C.V.); for pest or weed control at 100 ppm / CGM control value (C.V.): 100 ppm
# Method: Botrytis cinerae, which was isolated from cucumber infected thereby, was inoculated on a potato agar medium (PEC) and cultured under a 12L/12D cycle at 25° C. for 15 days to form spore. The spores were scraped, filtered through a gauze and then suspended in Potato Dextrose broth at a concentration of 1×10^6 spore/ml. The spore suspension was sprayed on a cucumber plant having one leaf. The cucumber plant was held in a humidified room at 20° C. for 3 days. L.A. on a leaf was measured to calculate a C.V.
# Erysiphae graminis = assay: Fungicidal activity against barley powdery mildew (BPM) disease, control value; format: in vivo; conditions: for pest or weed control at 2 ppm / pest or weed control at 10 ppm / pest or weed control at 50 ppm / pest or weed control at 100 ppm: 168 h, read-out: BPM control value (C.V.)
# Puccinia recondita = assay: Fungicidal activity against wheat leaf rust (WLR) disease, control value; format: in vivo; conditions: for pest or weed control at 2 ppm / pest or weed control at 10 ppm / pest or weed control at 50 ppm / pest or weed control at 100 ppm: read-out: WLR control value (C.V.)
# Phytophthora infestans = assay: whole plant or invertebrate; format: in vivo; conditions: for pest or weed control at 2 ppm / pest or weed control at 10 ppm / pest or weed control at 50 ppm / pest or weed control at 100 ppm: Phytophthora infestans, in Solanum lycopersicum, read-out: TLB control value (C.V.); for TLB control value (C.V.): tomato late blight
# [2] = Hordeum vulgare, 2 ppm, barley powdery mildew
# [3] = Hordeum vulgare, 10 ppm, barley powdery mildew
# [4] = Hordeum vulgare, 50 ppm, barley powdery mildew
# [5] = Hordeum vulgare, 100 ppm, barley powdery mildew
compound,measurement,setting,value
"CO/N=C(/C(=O)OC)c1ccccc1COc1ccc(C=C(Br)Br)cc1Cl [Example 63, methyl-(E)-2-(2-((4-(2,2-dibromovinyl)-2-chlorophenoxy)methyl)phenyl)-2-methoxyiminoacetate]",pest or weed control at 2 ppm,Rhizoctonia solani AG-1,90%
same,pest or weed control at 10 ppm,Rhizoctonia solani AG-1,100%
same,pest or weed control at 50 ppm,Rhizoctonia solani AG-1,100%
same,pest or weed control at 100 ppm,Rhizoctonia solani AG-1,100%
same,pest or weed control at 2 ppm,[1],100%
same,pest or weed control at 10 ppm,[1],100%
same,pest or weed control at 50 ppm,[1],100%
same,pest or weed control at 100 ppm,[1],100%
same,pest or weed control at 50 ppm,Botrytis cinerae,20%
same,pest or weed control at 100 ppm,Botrytis cinerae,75%
same,pest or weed control at 2 ppm,Erysiphae graminis; 2 ppm,100%
same,pest or weed control at 10 ppm,Erysiphae graminis; 10 ppm,100%
same,pest or weed control at 50 ppm,Erysiphae graminis; 50 ppm,100%
same,pest or weed control at 100 ppm,Erysiphae graminis; 100 ppm,100%
same,pest or weed control at 2 ppm,"Puccinia recondita; Puccinia recondita, 2 ppm",100%
same,pest or weed control at 10 ppm,"Puccinia recondita; Puccinia recondita, 10 ppm",100%
same,pest or weed control at 50 ppm,"Puccinia recondita; Puccinia recondita, 50 ppm",100%
same,pest or weed control at 100 ppm,"Puccinia recondita; Puccinia recondita, 100 ppm",100%
same,pest or weed control at 2 ppm,Phytophthora infestans,99%
same,pest or weed control at 10 ppm,Phytophthora infestans,100%
same,pest or weed control at 50 ppm,Phytophthora infestans,100%
same,pest or weed control at 100 ppm,Phytophthora infestans,100%
"CNC(=O)/C(=N/OC)c1ccccc1COc1ccc(C=C(F)Cl)cc1 [Example 14, (2E)-2-(2-((4-(2-chloro-2-difluorovinyl)phenoxy)methyl)phenyl)-2-methoxyimino-N-methylacetamide]",RSB control value (C.V.),Rhizoctonia solani AG-1; 100 ppm,15%
same,RCB control value (C.V.),[1]; 50 ppm,90%
same,RCB control value (C.V.),[1]; 100 ppm,95%
same,CGM control value (C.V.),Botrytis cinerae; cucumber gray mold rot,40%
same,BPM control value (C.V.),"Erysiphae graminis; 100 ppm, barley powdery mildew",60%
same,WLR control value (C.V.),"Puccinia recondita; 100 ppm, wheat leaf rust",72%
same,TLB control value (C.V.),Phytophthora infestans; 50 ppm,35%
same,TLB control value (C.V.),Phytophthora infestans; 100 ppm,98%
"CNC(=O)/C(=N/OC)c1ccccc1COc1cccc(C=C(Cl)Cl)c1 [Example 2, (E)-2-(2-((3-(2,2-dichlorovinyl)phenoxy)methyl)phenyl)-2-methoxyimino-N-methylacetamide]",pest or weed control at 100 ppm,Rhizoctonia solani AG-1,32%
same,pest or weed control at 2 ppm,[1],90%
same,pest or weed control at 10 ppm,[1],97%
same,pest or weed control at 50 ppm,[1],100%
same,pest or weed control at 100 ppm,[1],100%
same,pest or weed control at 100 ppm,Botrytis cinerae; cucumber gray mold rot,34%
same,pest or weed control at 2 ppm,Erysiphae graminis; [2],100%
same,pest or weed control at 10 ppm,Erysiphae graminis; [3],100%
same,pest or weed control at 50 ppm,Erysiphae graminis; [4],100%
same,pest or weed control at 100 ppm,Erysiphae graminis; [5],100%
same,pest or weed control at 2 ppm,"Puccinia recondita; 2 ppm, wheat leaf rust",30%
same,pest or weed control at 10 ppm,"Puccinia recondita; 10 ppm, wheat leaf rust",90%
same,pest or weed control at 50 ppm,"Puccinia recondita; 50 ppm, wheat leaf rust",98%
same,pest or weed control at 100 ppm,"Puccinia recondita; 100 ppm, wheat leaf rust",100%
same,pest or weed control at 2 ppm,Phytophthora infestans,98%
same,pest or weed control at 10 ppm,Phytophthora infestans,100%
same,pest or weed control at 50 ppm,Phytophthora infestans,100%
same,pest or weed control at 100 ppm,Phytophthora infestans,100%
"CCOc1cc(C=C(Cl)Cl)ccc1OCc1ccccc1/C(=N\OC)C(=O)OC [Example 59, methyl-(E)-2-(2-((4-(2,2-dichlorovinyl)-2-ethoxyphenoxy)methyl)phenyl)-2-methoxyiminoacetate]",pest or weed control at 2 ppm,Rhizoctonia solani AG-1,98%
same,pest or weed control at 10 ppm,Rhizoctonia solani AG-1,100%
same,pest or weed control at 50 ppm,Rhizoctonia solani AG-1,100%
same,pest or weed control at 100 ppm,Rhizoctonia solani AG-1,100%
same,pest or weed control at 2 ppm,[1],97%
same,pest or weed control at 10 ppm,[1],100%
same,pest or weed control at 50 ppm,[1],100%
same,pest or weed control at 100 ppm,[1],100%
same,pest or weed control at 100 ppm,Botrytis cinerae,65%
same,pest or weed control at 2 ppm,Erysiphae graminis; 2 ppm,98%
same,pest or weed control at 10 ppm,Erysiphae graminis; 10 ppm,100%
same,pest or weed control at 50 ppm,Erysiphae graminis; 50 ppm,100%
same,pest or weed control at 100 ppm,Erysiphae graminis; 100 ppm,100%
same,pest or weed control at 2 ppm,"Puccinia recondita; Puccinia recondita, 2 ppm",90%
same,pest or weed control at 10 ppm,"Puccinia recondita; Puccinia recondita, 10 ppm",100%
same,pest or weed control at 50 ppm,"Puccinia recondita; Puccinia recondita, 50 ppm",100%
same,pest or weed control at 100 ppm,"Puccinia recondita; Puccinia recondita, 100 ppm",100%
same,pest or weed control at 2 ppm,Phytophthora infestans,98%
same,pest or weed control at 10 ppm,Phytophthora infestans,100%
same,pest or weed control at 50 ppm,Phytophthora infestans,100%
same,pest or weed control at 100 ppm,Phytophthora infestans,100%
"CNC(=O)/C(=N/OC)c1ccccc1CON=C(C)c1cccc(C=C(Br)Br)c1 [Example 24, (E)-2-[[[[[2-[3-(2,2-dibromovinyl)phenyl](1-methyl)methylidene]amino]oxy]methyl]phenyl]-2-methoxyimino-N-methylacetamide]",RSB control value (C.V.),Rhizoctonia solani AG-1; 2 ppm,30%
same,RSB control value (C.V.),Rhizoctonia solani AG-1; 10 ppm,90%
same,RSB control value (C.V.),Rhizoctonia solani AG-1; 50 ppm,100%
same,RSB control value (C.V.),Rhizoctonia solani AG-1; 100 ppm,100%
same,RCB control value (C.V.),[1]; 2 ppm,98%
same,RCB control value (C.V.),[1]; 10 ppm,100%
same,RCB control value (C.V.),[1]; 50 ppm,100%
same,RCB control value (C.V.),[1]; 100 ppm,100%
same,CGM control value (C.V.),Botrytis cinerae; cucumber gray mold rot,60%
same,BPM control value (C.V.),"Erysiphae graminis; 2 ppm, barley powdery mildew",10%
same,BPM control value (C.V.),"Erysiphae graminis; 10 ppm, barley powdery mildew",60%
same,BPM control value (C.V.),"Erysiphae graminis; 50 ppm, barley powdery mildew",90%
same,BPM control value (C.V.),"Erysiphae graminis; 100 ppm, barley powdery mildew",100%
same,WLR control value (C.V.),"Puccinia recondita; 2 ppm, wheat leaf rust",0%
same,WLR control value (C.V.),"Puccinia recondita; 10 ppm, wheat leaf rust",35%
same,WLR control value (C.V.),"Puccinia recondita; 50 ppm, wheat leaf rust",95%
same,WLR control value (C.V.),"Puccinia recondita; 100 ppm, wheat leaf rust",98%
same,TLB control value (C.V.),Phytophthora infestans; 100 ppm,50%
"CNC(=O)/C(=N/OC)c1ccccc1COc1cc(C=C(Br)Br)ccc1OC [Example 72, (E)-2-(2-((5-(2,2-dibromovinyl)-2-methoxyphenoxy)methyl)phenyl)-2-methoxyimino-N-methylacetamide]",pest or weed control at 2 ppm,Rhizoctonia solani AG-1,75%
same,pest or weed control at 10 ppm,Rhizoctonia solani AG-1,98%
same,pest or weed control at 50 ppm,Rhizoctonia solani AG-1,100%
same,pest or weed control at 100 ppm,Rhizoctonia solani AG-1,100%
same,pest or weed control at 2 ppm,[1],80%
same,pest or weed control at 10 ppm,[1],99%
same,pest or weed control at 50 ppm,[1],100%
same,pest or weed control at 100 ppm,[1],100%
same,pest or weed control at 100 ppm,Botrytis cinerae,79%
same,pest or weed control at 2 ppm,Erysiphae graminis; 2 ppm,98%
same,pest or weed control at 10 ppm,Erysiphae graminis; 10 ppm,100%
same,pest or weed control at 50 ppm,Erysiphae graminis; 50 ppm,100%
same,pest or weed control at 100 ppm,Erysiphae graminis; 100 ppm,100%
same,pest or weed control at 2 ppm,"Puccinia recondita; Puccinia recondita, 2 ppm",97%
same,pest or weed control at 10 ppm,"Puccinia recondita; Puccinia recondita, 10 ppm",100%
same,pest or weed control at 50 ppm,"Puccinia recondita; Puccinia recondita, 50 ppm",100%
same,pest or weed control at 100 ppm,"Puccinia recondita; Puccinia recondita, 100 ppm",100%
same,pest or weed control at 2 ppm,Phytophthora infestans,70%
same,pest or weed control at 10 ppm,Phytophthora infestans,90%
same,pest or weed control at 50 ppm,Phytophthora infestans,100%
same,pest or weed control at 100 ppm,Phytophthora infestans,100%
"CO/N=C(/C(=O)OC)c1ccccc1COc1ccc(F)cc1C=C(Cl)Cl [Example 55, methyl-(E)-2-(2-((2-(2,2-dichlorovinyl)-4-fluorophenoxy)methyl)phenyl)-2-methoxyiminoacetate]",pest or weed control at 2 ppm,Rhizoctonia solani AG-1,90%
same,pest or weed control at 10 ppm,Rhizoctonia solani AG-1,100%
same,pest or weed control at 50 ppm,Rhizoctonia solani AG-1,100%
same,pest or weed control at 100 ppm,Rhizoctonia solani AG-1,100%
same,pest or weed control at 2 ppm,[1],100%
same,pest or weed control at 10 ppm,[1],100%
same,pest or weed control at 50 ppm,[1],100%
same,pest or weed control at 100 ppm,[1],100%
same,pest or weed control at 50 ppm,Botrytis cinerae,25%
same,pest or weed control at 100 ppm,Botrytis cinerae,75%
same,pest or weed control at 2 ppm,Erysiphae graminis; 2 ppm,100%
same,pest or weed control at 10 ppm,Erysiphae graminis; 10 ppm,100%
same,pest or weed control at 50 ppm,Erysiphae graminis; 50 ppm,100%
same,pest or weed control at 100 ppm,Erysiphae graminis; 100 ppm,100%
same,pest or weed control at 2 ppm,"Puccinia recondita; Puccinia recondita, 2 ppm",100%
same,pest or weed control at 10 ppm,"Puccinia recondita; Puccinia recondita, 10 ppm",100%
same,pest or weed control at 50 ppm,"Puccinia recondita; Puccinia recondita, 50 ppm",100%
same,pest or weed control at 100 ppm,"Puccinia recondita; Puccinia recondita, 100 ppm",100%
same,pest or weed control at 2 ppm,Phytophthora infestans,99%
same,pest or weed control at 10 ppm,Phytophthora infestans,100%
same,pest or weed control at 50 ppm,Phytophthora infestans,100%
same,pest or weed control at 100 ppm,Phytophthora infestans,100%
"CO/N=C(/C(=O)OC)c1ccccc1COc1c(OC)ccc(C=C(Cl)Cl)c1Br [Example 51, methyl-(E)-2-(2-((2-bromo-3-(2,2-dichlorovinyl)-6-methoxyphenoxy)methyl)phenyl)-2-methoxyiminoacetate]",pest or weed control at 2 ppm,Rhizoctonia solani AG-1,90%
same,pest or weed control at 10 ppm,Rhizoctonia solani AG-1,98%
same,pest or weed control at 50 ppm,Rhizoctonia solani AG-1,100%
same,pest or weed control at 100 ppm,Rhizoctonia solani AG-1,100%
same,pest or weed control at 2 ppm,[1],90%
same,pest or weed control at 10 ppm,[1],100%
same,pest or weed control at 50 ppm,[1],100%
same,pest or weed control at 100 ppm,[1],100%
same,pest or weed control at 100 ppm,Botrytis cinerae; cucumber gray mold rot,75%
same,pest or weed control at 2 ppm,Erysiphae graminis; [2],100%
same,pest or weed control at 10 ppm,Erysiphae graminis; [3],100%
same,pest or weed control at 50 ppm,Erysiphae graminis; [4],100%
same,pest or weed control at 100 ppm,Erysiphae graminis; [5],100%
same,pest or weed control at 2 ppm,"Puccinia recondita; 2 ppm, wheat leaf rust",100%
same,pest or weed control at 10 ppm,"Puccinia recondita; 10 ppm, wheat leaf rust",100%
same,pest or weed control at 50 ppm,"Puccinia recondita; 50 ppm, wheat leaf rust",100%
same,pest or weed control at 100 ppm,"Puccinia recondita; 100 ppm, wheat leaf rust",100%
same,pest or weed control at 2 ppm,Phytophthora infestans,90%
same,pest or weed control at 10 ppm,Phytophthora infestans,97%
same,pest or weed control at 50 ppm,Phytophthora infestans,100%
same,pest or weed control at 100 ppm,Phytophthora infestans,100%
